Activity calls are given as the source filed them.
What was measured:
Assay type in all cases: functional
[1] = molecular target: Dual specificity protein kinase CLK4 (Homo sapiens, UniProt Q9HAZ1)
[2] = molecular target: Dual specificity tyrosine-phosphorylation-regulated kinase 1A (Homo sapiens, UniProt Q13627);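 further: measured against DYRK1A as one member of a broad kinome profiling panel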
[3] = molecular target: Dual specificity mitogen-activated protein kinase kinase 1 (Homo sapiens, UniProt Q02750); test: Navigating the Kinome. Panel member name: MAP2K1
[4] = molecular target: Vascular endothelial growth factor receptor 1 (Homo sapiens, UniProt P17948);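 further: measured within a kinome-wide profiling panel, FLT1 as the panel member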
[5] = molecular target: T1, Serine/threonine-protein kinase D3 (Homo sapiens, UniProt O94806);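 further: determined within a kinase panel screen, with PRKCN as the panel member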
T1 sequence (O94806 whole entry): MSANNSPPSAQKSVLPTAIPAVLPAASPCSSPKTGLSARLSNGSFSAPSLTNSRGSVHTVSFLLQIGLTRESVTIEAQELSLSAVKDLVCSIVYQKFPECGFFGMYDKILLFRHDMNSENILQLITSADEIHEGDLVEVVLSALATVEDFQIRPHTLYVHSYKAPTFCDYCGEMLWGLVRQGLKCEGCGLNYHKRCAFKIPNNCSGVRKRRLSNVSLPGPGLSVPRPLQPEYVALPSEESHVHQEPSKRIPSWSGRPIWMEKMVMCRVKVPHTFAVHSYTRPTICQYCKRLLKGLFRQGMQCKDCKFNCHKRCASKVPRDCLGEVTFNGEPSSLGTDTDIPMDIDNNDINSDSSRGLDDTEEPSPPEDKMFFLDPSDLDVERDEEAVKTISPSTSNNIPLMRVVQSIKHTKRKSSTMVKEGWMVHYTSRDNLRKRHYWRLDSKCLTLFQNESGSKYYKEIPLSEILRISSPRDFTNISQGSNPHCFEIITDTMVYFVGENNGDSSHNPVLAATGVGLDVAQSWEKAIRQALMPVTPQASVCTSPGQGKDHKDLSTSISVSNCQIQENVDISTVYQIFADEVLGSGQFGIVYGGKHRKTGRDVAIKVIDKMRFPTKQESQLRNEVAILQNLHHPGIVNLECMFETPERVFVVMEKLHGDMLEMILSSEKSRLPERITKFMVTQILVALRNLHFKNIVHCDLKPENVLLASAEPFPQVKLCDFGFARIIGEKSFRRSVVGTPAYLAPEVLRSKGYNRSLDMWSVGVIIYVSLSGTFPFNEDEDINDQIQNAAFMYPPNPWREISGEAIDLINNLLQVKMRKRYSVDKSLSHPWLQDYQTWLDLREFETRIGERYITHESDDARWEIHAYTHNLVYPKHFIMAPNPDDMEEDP

[6] = molecular target: Leucine-rich repeat serine/threonine-protein kinase 2 (Homo sapiens, UniProt Q5S007);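 further: value from a broad kinome-wide panel profiling study in which LRRK2 was one of the kinases tested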
[7] = molecular target: Dual specificity tyrosine-phosphorylation-regulated kinase 1B (Homo sapiens, UniProt Q9Y463); test: Navigating the Kinome. Panel member name: DYRK1B
Activin receptor type-1 = molecular target: T2, Activin receptor type-1 (Homo sapiens, UniProt Q04771); test: Navigating the Kinome. Panel member name: ACVR1
T2 sequence (Q04771 whole entry): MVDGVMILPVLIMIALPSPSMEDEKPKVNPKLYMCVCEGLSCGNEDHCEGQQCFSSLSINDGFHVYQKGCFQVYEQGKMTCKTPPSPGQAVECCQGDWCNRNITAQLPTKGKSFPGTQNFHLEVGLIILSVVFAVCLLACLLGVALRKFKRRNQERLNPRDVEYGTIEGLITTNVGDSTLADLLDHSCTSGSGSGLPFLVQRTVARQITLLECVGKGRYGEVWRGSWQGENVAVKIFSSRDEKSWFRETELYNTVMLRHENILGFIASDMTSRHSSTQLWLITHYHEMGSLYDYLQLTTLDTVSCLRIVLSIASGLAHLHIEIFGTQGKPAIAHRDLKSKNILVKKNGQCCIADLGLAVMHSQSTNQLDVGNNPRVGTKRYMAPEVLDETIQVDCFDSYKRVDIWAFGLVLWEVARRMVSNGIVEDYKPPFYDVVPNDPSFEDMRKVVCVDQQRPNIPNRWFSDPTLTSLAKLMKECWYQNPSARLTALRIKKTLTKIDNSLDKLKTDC

[8] = molecular target: Leukocyte tyrosine kinase receptor (Homo sapiens, UniProt P29376); test: Navigating the Kinome. Panel member name: LTK
[9] = molecular target: T3, Serine/threonine-protein kinase TAO1 (Homo sapiens, UniProt Q7L7X3)
T3 sequence (Q7L7X3 whole entry): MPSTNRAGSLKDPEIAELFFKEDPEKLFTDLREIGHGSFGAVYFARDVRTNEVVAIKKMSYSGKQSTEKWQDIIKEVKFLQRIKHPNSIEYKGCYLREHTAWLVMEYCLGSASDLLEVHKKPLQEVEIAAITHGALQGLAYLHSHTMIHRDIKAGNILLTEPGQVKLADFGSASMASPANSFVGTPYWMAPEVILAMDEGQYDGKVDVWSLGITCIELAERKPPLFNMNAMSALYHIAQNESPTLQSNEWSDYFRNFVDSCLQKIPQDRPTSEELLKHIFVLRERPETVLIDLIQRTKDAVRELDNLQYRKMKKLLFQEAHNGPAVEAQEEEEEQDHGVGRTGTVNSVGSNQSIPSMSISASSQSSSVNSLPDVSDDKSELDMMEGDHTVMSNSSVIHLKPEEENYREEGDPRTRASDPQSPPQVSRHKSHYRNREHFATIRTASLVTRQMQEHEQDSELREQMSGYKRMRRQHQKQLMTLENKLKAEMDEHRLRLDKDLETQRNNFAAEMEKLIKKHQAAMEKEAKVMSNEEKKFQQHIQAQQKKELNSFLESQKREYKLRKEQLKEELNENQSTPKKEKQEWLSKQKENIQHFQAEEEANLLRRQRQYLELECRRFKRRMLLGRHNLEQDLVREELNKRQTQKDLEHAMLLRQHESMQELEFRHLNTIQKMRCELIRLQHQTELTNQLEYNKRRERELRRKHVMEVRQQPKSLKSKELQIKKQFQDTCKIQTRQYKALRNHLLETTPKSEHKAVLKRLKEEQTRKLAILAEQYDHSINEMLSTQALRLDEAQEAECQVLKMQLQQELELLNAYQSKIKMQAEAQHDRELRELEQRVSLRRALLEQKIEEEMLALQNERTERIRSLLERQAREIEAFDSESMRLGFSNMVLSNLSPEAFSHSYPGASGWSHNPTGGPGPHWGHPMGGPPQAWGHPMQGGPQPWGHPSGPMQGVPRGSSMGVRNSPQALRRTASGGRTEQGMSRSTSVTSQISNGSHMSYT

Sequence of Vascular endothelial growth factor receptor 1 (P17948 whole entry): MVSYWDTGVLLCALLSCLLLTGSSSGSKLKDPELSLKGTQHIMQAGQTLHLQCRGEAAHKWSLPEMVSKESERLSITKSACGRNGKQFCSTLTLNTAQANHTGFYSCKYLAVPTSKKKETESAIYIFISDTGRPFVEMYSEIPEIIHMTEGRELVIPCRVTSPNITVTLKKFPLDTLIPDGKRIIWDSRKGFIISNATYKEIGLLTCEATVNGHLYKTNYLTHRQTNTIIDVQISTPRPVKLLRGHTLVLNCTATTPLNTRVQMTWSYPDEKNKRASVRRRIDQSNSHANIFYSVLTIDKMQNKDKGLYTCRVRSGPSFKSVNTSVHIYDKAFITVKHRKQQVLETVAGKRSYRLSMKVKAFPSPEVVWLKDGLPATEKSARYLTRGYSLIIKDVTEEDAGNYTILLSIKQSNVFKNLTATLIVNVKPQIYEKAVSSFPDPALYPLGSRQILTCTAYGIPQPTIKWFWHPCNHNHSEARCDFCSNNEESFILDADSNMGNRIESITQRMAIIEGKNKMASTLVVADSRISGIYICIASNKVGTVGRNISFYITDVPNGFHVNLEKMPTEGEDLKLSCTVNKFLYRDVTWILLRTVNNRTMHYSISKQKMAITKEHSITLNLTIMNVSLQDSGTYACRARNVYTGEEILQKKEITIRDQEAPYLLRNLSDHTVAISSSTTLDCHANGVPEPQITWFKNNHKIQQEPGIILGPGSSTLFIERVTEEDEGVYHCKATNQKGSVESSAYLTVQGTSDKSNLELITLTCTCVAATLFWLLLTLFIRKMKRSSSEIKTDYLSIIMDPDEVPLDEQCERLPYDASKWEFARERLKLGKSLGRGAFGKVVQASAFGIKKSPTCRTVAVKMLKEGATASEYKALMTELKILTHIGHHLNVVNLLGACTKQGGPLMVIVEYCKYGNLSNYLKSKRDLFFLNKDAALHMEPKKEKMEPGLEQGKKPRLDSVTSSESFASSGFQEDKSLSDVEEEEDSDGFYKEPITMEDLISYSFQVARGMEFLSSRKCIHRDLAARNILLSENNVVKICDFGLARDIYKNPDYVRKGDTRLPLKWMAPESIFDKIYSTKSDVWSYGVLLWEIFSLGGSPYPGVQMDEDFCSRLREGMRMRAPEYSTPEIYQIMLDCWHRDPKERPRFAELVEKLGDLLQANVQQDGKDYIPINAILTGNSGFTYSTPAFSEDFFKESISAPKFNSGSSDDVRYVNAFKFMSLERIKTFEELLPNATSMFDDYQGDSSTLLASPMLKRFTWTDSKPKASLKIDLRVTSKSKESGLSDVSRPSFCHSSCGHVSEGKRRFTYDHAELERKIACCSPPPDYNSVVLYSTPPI
Sequence of Dual specificity tyrosine-phosphorylation-regulated kinase 1B (Q9Y463 whole entry): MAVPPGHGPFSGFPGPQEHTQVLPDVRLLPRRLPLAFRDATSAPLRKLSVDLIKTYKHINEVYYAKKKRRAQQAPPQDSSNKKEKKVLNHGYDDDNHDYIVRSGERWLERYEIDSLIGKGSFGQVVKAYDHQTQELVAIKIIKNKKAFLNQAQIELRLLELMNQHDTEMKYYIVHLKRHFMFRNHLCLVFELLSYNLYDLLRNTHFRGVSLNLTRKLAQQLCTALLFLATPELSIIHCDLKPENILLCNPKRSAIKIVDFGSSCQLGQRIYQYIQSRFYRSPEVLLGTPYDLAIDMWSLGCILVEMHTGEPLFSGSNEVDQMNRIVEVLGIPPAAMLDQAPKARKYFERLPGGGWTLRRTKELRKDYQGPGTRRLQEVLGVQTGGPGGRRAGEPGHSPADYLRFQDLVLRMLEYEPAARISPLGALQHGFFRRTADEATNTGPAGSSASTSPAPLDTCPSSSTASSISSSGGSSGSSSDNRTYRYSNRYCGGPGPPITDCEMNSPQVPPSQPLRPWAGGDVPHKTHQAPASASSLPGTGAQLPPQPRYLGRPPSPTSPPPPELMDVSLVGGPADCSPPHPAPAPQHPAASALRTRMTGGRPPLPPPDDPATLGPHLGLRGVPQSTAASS
Sequence of Leucine-rich repeat serine/threonine-protein kinase 2 (Q5S007 whole entry): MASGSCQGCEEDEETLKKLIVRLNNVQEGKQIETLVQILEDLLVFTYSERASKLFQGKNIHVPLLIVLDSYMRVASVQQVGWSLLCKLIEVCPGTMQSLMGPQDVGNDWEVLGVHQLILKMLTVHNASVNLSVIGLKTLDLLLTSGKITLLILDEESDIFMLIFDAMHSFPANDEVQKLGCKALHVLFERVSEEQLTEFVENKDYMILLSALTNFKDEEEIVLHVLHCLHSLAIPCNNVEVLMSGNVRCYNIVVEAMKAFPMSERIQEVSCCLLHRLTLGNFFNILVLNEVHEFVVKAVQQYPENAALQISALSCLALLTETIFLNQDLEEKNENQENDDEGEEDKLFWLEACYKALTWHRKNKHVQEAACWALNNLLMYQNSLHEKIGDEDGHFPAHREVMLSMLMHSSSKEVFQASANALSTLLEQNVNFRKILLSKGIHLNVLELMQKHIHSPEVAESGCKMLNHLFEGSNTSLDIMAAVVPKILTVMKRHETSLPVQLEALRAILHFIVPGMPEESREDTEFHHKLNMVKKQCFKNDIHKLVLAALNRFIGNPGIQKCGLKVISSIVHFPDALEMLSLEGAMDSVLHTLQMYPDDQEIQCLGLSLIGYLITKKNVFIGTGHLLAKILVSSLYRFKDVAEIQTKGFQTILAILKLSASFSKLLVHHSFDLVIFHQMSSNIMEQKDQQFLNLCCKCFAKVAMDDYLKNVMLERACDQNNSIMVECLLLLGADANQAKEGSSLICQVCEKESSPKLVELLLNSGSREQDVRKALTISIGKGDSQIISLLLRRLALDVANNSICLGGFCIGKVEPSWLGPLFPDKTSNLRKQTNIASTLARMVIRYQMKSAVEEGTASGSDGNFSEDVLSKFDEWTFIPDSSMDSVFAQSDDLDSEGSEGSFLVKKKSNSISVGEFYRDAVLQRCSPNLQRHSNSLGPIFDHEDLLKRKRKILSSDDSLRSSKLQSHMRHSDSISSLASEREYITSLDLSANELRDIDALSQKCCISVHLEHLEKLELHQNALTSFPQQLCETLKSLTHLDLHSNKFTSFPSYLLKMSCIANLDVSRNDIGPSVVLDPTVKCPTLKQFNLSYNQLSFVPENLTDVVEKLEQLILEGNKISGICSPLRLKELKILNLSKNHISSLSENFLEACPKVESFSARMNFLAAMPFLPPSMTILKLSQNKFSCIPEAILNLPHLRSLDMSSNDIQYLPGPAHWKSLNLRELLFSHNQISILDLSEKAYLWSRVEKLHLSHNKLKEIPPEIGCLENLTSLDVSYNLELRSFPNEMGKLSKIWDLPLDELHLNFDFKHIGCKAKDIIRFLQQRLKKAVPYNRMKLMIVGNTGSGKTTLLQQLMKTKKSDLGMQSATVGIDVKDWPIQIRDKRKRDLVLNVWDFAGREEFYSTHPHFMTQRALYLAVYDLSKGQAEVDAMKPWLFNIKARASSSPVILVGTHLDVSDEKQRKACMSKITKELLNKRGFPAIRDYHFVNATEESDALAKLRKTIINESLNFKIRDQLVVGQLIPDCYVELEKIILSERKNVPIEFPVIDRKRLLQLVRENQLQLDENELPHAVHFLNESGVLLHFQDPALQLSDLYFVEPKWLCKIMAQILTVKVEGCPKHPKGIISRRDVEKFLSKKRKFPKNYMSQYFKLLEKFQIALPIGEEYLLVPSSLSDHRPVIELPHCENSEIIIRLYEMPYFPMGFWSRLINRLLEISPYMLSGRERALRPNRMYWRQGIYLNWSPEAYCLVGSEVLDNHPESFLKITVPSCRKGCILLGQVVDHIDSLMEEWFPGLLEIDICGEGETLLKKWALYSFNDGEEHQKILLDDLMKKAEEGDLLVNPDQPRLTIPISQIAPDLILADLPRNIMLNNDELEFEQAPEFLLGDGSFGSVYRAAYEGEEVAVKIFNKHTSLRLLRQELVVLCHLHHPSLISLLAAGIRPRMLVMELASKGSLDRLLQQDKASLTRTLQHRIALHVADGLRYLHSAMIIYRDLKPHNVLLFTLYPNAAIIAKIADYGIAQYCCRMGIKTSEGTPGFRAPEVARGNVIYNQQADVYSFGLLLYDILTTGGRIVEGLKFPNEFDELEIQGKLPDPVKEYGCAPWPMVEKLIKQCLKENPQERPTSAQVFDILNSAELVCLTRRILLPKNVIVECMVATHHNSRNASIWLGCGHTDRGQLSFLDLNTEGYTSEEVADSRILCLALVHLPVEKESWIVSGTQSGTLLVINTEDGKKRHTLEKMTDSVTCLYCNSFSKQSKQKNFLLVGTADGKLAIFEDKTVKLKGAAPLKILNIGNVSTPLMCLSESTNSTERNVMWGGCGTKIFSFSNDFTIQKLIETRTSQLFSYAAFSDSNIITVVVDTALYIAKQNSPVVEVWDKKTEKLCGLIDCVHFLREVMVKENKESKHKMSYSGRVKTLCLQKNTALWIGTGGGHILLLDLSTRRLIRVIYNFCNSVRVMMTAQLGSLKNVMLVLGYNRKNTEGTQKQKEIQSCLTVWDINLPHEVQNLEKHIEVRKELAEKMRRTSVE
Sequence of Dual specificity protein kinase CLK4 (Q9HAZ1 whole entry): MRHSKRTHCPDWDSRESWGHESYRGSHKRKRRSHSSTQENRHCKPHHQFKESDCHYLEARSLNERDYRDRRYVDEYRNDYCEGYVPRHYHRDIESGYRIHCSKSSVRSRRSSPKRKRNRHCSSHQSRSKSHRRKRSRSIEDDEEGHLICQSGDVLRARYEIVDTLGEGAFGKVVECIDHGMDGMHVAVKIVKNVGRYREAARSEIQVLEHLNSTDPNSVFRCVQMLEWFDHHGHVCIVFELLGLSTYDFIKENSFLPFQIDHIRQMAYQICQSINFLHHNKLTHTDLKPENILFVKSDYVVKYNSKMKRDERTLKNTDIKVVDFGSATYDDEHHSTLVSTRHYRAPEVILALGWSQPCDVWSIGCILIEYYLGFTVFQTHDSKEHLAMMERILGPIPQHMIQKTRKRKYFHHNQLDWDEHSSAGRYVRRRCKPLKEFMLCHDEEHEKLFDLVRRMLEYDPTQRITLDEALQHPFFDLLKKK

Ki [1] | Ki [2] | Ki [3] | Ki [4] | Ki [5] | Ki [6] | Ki [7] | Ki (Activin receptor type-1) | Ki [8] | Ki [9] | SMILES
> 2.51 µM (inactive) | > 2 µM (inactive) | > 3.16 µM (inactive) | > 3.98 µM (inactive) | > 3.98 µM (inactive) | > 2.51 µM (inactive) | > 2.51 µM (inactive) | > 3.98 µM (inactive) | > 2.51 µM (inactive) | > 6.31 µM (inactive) | COc1cccc(C(C)NC(=O)c2sc(-c3ccncc3)nc2C)c1 (stereo not given)
0.0126 µM (active) | 0.0398 µM (active) | > 3.16 µM (inactive) | > 3.98 µM (inactive) | > 3.98 µM (inactive) | > 2.51 µM (inactive) | 0.0398 µM (active) | > 3.98 µM (inactive) | > 2.51 µM (inactive) | > 6.31 µM (inactive) | CCCCC(=O)Nc1cc(-c2c[nH]c3ncccc23)cc(Cl)n1
2.51 µM (active) | > 2 µM (inactive) | > 3.16 µM (inactive) | > 3.98 µM (inactive) | 2.51 µM (active) | > 2.51 µM (inactive) | > 2.51 µM (inactive) | > 3.16 µM (inactive) | > 1.58 µM (inactive) | > 6.31 µM (inactive) | Oc1ccc(-c2nc(-c3ccncc3)c(-c3ccc(F)cc3)[nH]2)cc1 [SB-202190]

— ChEMBL document CHEMBL1201862, “PubChem BioAssay data set” (2004)
